The subject of series [1] is NIH3T3 cells. Description: JC-10 mitochondrial membrane potential assay. In kind it is cell-based, mouse. As to conditions: 1 μM staurosporine alone, 6 hours.
The test system of series [2] is NIH3T3 cells. In kind it is cell-based, mouse. As to conditions: 1 μM staurosporine alone, 24 hours.
The format of series [3] is cell-based. The note with it: human, U87MG cells.
Series [4] deals with caspase-3/7. Description: Apo-ONE Homogeneous Caspase-3/7 Assay in NIH3T3 cells. In kind it is cell-based, mouse. As to conditions: 1 μM staurosporine alone, 6 hours.
The format of series [5] is cell-based. As to conditions: rat, PC12 cells.
Series [6] is classed as cell-based. As to conditions: human, SH-SY5Y cells.
Series [7] concerns NIH3T3 cells. Description: MTT cell proliferation assay. In kind it is cell-based, mouse. The note with it: 1 μM staurosporine alone, 24 hours. (Tetrazolium assays rely on reduction of a dye to a coloured formazan, in cell work by metabolically active cells.)

Read-outs that look alike come from different tables or passages of the source.

Take `CN[C@@H]1C[C@H]2O[C@@](C)([C@@H]1OC)n1c3ccccc3c3c4c(c5c6ccccc6n2c5c31)C(=O)NC4` [staurosporine]: in series [1], the Mitochondrial membrane potential entry is recorded as “significantly lost mitochondrial membrane potential”. For the same compound, the Cell death entry in series [2] is “over 90%”. Further, the viability at 24 h, 1 μM amounted to 8% in series [3], 4% in series [5] and 6% in series [6]. Moreover, in series [4], the “Caspase activation (caspase-3/7 activity)” value was “induced significant caspase activation”. Also, the “Cell viability by MTT” value in series [7] is listed as “reduced the cell viability dramatically”.

For orientation: viability means a read-out of living cells in per cent, often relative to untreated cells. Low readings indicate a greater loss of cells, high ones better survival.

Values taken from publication PMC4043716 (Drug Design, Development and Therapy, 2014).
